From US20070128217A1 (priority 2003, published 2007)

Assays:
[1] = test system: antibodies in sera from SARS patients (sera 1a, 1b, 2, 6, 37, 62, London, SARS-yellow, SARS-green); format: binding, human; parameters: Binding of serum 6 to linear peptides of protein X1 of SARS-CoV Urbani / Binding of serum 37 to linear peptides of protein X1 of SARS-CoV Urbani / Binding of serum 6 to looped/cyclic peptide (PEPSCAN-ELISA) / Binding of serum 37 to looped/cyclic peptide (PEPSCAN-ELISA) / Binding of serum 37 to looped/cyclic peptides of protein X1 of SARS-CoV Urbani / Binding of serum 6 to linear peptides of protein X2 / Binding of serum 37 to linear peptides of protein X2 / Binding of serum 37 to looped/cyclic peptides of protein X2 of SARS-CoV Urbani / Binding of serum 6 to linear peptides of protein M of SARS-CoV Urbani / Binding of serum 37 to linear peptides of protein M of SARS-CoV Urbani / Binding of serum 6 to looped/cyclic peptides of protein M of SARS-CoV Urbani / Binding of serum 37 to looped/cyclic peptides of protein M of SARS-CoV Urbani / Binding of serum 6 to linear peptides of protein X3 of SARS-CoV Urbani / Binding of serum 37 to linear peptides of protein X3 of SARS-CoV Urbani / Binding of serum 37 to looped/cyclic peptides of protein X3 of SARS-CoV Urbani / Binding of serum 6 to linear peptides of protein X4 of SARS-CoV Urbani / Binding of serum 37 to linear peptides of protein X4 of SARS-CoV Urbani / Binding of serum 37 to looped/cyclic peptides of protein X4 of SARS-CoV Urbani / Binding of serum 6 to linear peptides of protein X5 of SARS-CoV Urbani / Binding of serum 37 to linear peptides of protein X5 of SARS-CoV Urbani / Binding of serum 37 to looped/cyclic peptides of protein X5 of SARS-CoV Urbani / Binding of serum 6 to linear peptides of protein N of SARS-CoV Urbani / Binding of serum 37 to linear peptides of protein N of SARS-CoV Urbani / Binding of serum 6 to linear peptide (PEPSCAN-ELISA) / Binding of serum 1a to looped/cyclic peptides of protein N of SARS-CoV Urbani / Binding of serum 1b to looped/cyclic peptides of protein N of SARS-CoV Urbani / Binding of serum 2 to looped/cyclic peptides of protein N of SARS-CoV Urbani / Binding of serum 6 to looped/cyclic peptides of protein N of SARS-CoV Urbani / Binding of serum 37 to looped/cyclic peptides of protein N of SARS-CoV Urbani / Binding of serum 62 to looped/cyclic peptides of protein N of SARS-CoV Urbani / Binding of serum London to looped/cyclic peptides of protein N of SARS-CoV Urbani / Binding of serum SARS-green to looped/cyclic peptides of protein N of SARS-CoV Urbani: unit not given here
[2] = test system: control sera (pooled serum of ten healthy LUMC hospital workers; commercial negative donor pooled serum from the Dutch bloodbank); format: binding, human; parameters: Binding of Control serum LUMC to linear peptides / Binding of Control serum Blood-bank to linear peptides / Binding of Control serum LUMC to looped peptides / Binding of Control Serum Blood-Bank to Looped peptides / Binding of Control serum LUMC to linear peptides of the protein M of SARS-CoV Urbani / Binding of Control serum Blood-bank to linear peptides of the protein M of SARS-CoV Urbani / Binding of Control serum LUMC to looped peptides of the protein M of SARS-CoV Urbani / Binding of Control Serum Blood-Bank to Looped peptides of the protein M of SARS-CoV Urbani: unit not given here
[3] = test system: rabbit serum obtained by immunizing a rabbit with the SARS-CoV strain Frankfurt 1; format: binding; parameters: Binding of a rabbit serum to linear peptides / Binding of a rabbit serum to looped peptides / Rabbit serum linear peptides / Rabbit serum looped peptides / Binding of a rabbit serum to linear peptides of protein N of SARS-CoV Urbani (Rabbit serum linear peptides) / Binding of a rabbit serum to looped/cyclic peptides of protein N of SARS-CoV Urbani (Rabbit serum looped peptides): unit not given here

DLFMRFFTLGSITAQ
0.4: Binding of serum 2 to linear peptides of protein X1 of SARS-CoV Urbani [1] | Binding of serum SARS-yellow to linear peptides of protein X1 of SARS-CoV Urbani [1]
0.3: Binding of serum 1b to looped/cyclic peptide (PEPSCAN-ELISA) [1] | Binding of serum 2 to looped/cyclic peptide (PEPSCAN-ELISA) [1] | Binding of serum 6 to looped/cyclic peptide (PEPSCAN-ELISA) [1] | Binding of a rabbit serum to looped peptides [3]
0.1: Binding of serum 6 to linear peptides of protein X1 of SARS-CoV Urbani [1] | Binding of a rabbit serum to linear peptides [3]
0.5: Binding of serum 1a to looped/cyclic peptide (PEPSCAN-ELISA) [1] | Binding of serum 1b to linear peptides of protein X1 of SARS-CoV Urbani [1] | Binding of serum 37 to looped/cyclic peptide (PEPSCAN-ELISA) [1] | Binding of serum 62 to linear peptides of protein X1 of SARS-CoV Urbani [1] | Binding of serum 62 to looped/cyclic peptide (PEPSCAN-ELISA) [1] | Binding of Control Serum Blood-Bank to Looped peptides [2] | Binding of Control serum LUMC to looped peptides [2]
0.6: Binding of serum 37 to linear peptides of protein X1 of SARS-CoV Urbani [1] | Binding of Control serum Blood-bank to linear peptides [2] | Binding of Control serum LUMC to linear peptides [2]
0.2: Binding of serum London to linear peptides of protein X1 of SARS-CoV Urbani [1] | Binding of serum London to looped/cyclic peptide (PEPSCAN-ELISA) [1] | Binding of serum SARS-green to linear peptides of protein X1 of SARS-CoV Urbani [1] | Binding of serum SARS-green to looped/cyclic peptide (PEPSCAN-ELISA) [1] | Binding of serum SARS-yellow to looped/cyclic peptide (PEPSCAN-ELISA) [1]
0.7: Binding of serum 1a to linear peptides of protein X1 of SARS-CoV Urbani [1]

DPAGGALIARCWYLH
0.2: Binding of serum London to looped/cyclic peptides of protein X5 of SARS-CoV Urbani [1] | Binding of serum SARS-yellow to linear peptides of protein X5 of SARS-CoV Urbani [1]
0.8: Binding of serum 1a to looped/cyclic peptides of protein X5 of SARS-CoV Urbani [1] | Binding of serum 37 to linear peptides of protein X5 of SARS-CoV Urbani [1] | Binding of Control Serum Blood-Bank to Looped peptides [2]
0.3: Binding of serum SARS-yellow to looped/cyclic peptides of protein X5 of SARS-CoV Urbani [1] | Binding of Control serum LUMC to linear peptides [2] | Rabbit serum linear peptides [3]
0.6: Binding of serum 1b to linear peptides of protein X5 of SARS-CoV Urbani [1] | Binding of serum 62 to looped/cyclic peptides of protein X5 of SARS-CoV Urbani [1] | Binding of serum London to linear peptides of protein X5 of SARS-CoV Urbani [1] | Binding of serum SARS-green to linear peptides of protein X5 of SARS-CoV Urbani [1] | Binding of serum SARS-green to looped/cyclic peptides of protein X5 of SARS-CoV Urbani [1] | Binding of Control serum LUMC to looped peptides [2]
0.4: Binding of serum 2 to linear peptides of protein X5 of SARS-CoV Urbani [1] | Binding of serum 6 to looped/cyclic peptides of protein X5 of SARS-CoV Urbani [1]
0.7: Binding of serum 1a to linear peptides of protein X5 of SARS-CoV Urbani [1] | Binding of serum 37 to looped/cyclic peptides of protein X5 of SARS-CoV Urbani [1] | Binding of serum 62 to linear peptides of protein X5 of SARS-CoV Urbani [1] | Binding of Control serum Blood-bank to linear peptides [2]
0.5: Binding of serum 1b to looped/cyclic peptides of protein X5 of SARS-CoV Urbani [1] | Binding of serum 2 to looped/cyclic peptides of protein X5 of SARS-CoV Urbani [1] | Binding of serum 6 to linear peptides of protein X5 of SARS-CoV Urbani [1] | Rabbit serum looped peptides [3]

DPPNVQIHTIDGSSG
0.5: Binding of serum 1a to linear peptides of protein X1 of SARS-CoV Urbani [1] | Binding of serum 37 to linear peptides of protein X1 of SARS-CoV Urbani [1] | Binding of Control serum LUMC to looped peptides [2]
0.1: Binding of a rabbit serum to linear peptides [3]
0.4: Binding of serum 1a to looped/cyclic peptides of protein X1 of SARS-CoV Urbani [1] | Binding of serum 1b to linear peptides of protein X1 of SARS-CoV Urbani [1] | Binding of serum 62 to linear peptides of protein X1 of SARS-CoV Urbani [1] | Binding of Control Serum Blood-Bank to Looped peptides [2] | Binding of a rabbit serum to looped peptides [3]
0.3: Binding of serum 2 to linear peptides of protein X1 of SARS-CoV Urbani [1] | Binding of serum 6 to linear peptides of protein X1 of SARS-CoV Urbani [1] | Binding of serum 37 to looped/cyclic peptides of protein X1 of SARS-CoV Urbani [1] | Binding of serum 62 to looped/cyclic peptides of protein X1 of SARS-CoV Urbani [1] | Binding of Control serum Blood-bank to linear peptides [2] | Binding of Control serum LUMC to linear peptides [2]
0.2: Binding of serum 1b to looped/cyclic peptides of protein X1 of SARS-CoV Urbani [1] | Binding of serum 2 to looped/cyclic peptides of protein X1 of SARS-CoV Urbani [1] | Binding of serum 6 to looped/cyclic peptides of protein X1 of SARS-CoV Urbani [1] | Binding of serum London to linear peptides of protein X1 of SARS-CoV Urbani [1] | Binding of serum London to looped/cyclic peptides of protein X1 of SARS-CoV Urbani [1] | Binding of serum SARS-green to linear peptides of protein X1 of SARS-CoV Urbani [1] | Binding of serum SARS-green to looped/cyclic peptides of protein X1 of SARS-CoV Urbani [1] | Binding of serum SARS-yellow to linear peptides of protein X1 of SARS-CoV Urbani [1] | Binding of serum SARS-yellow to looped/cyclic peptides of protein X1 of SARS-CoV Urbani [1]

DSGFAAYNRYRIGNY
0.4: Binding of serum 1b to linear peptides of protein M of SARS-CoV Urbani [1] | Binding of serum 2 to linear peptides of protein M of SARS-CoV Urbani [1] | Binding of serum 37 to linear peptides of protein M of SARS-CoV Urbani [1] | Binding of serum 62 to linear peptides of protein M of SARS-CoV Urbani [1] | Binding of serum SARS-green to looped/cyclic peptides of protein M of SARS-CoV Urbani [1]
0.7: Binding of serum 37 to looped/cyclic peptides of protein M of SARS-CoV Urbani [1]
0.5: Binding of serum 6 to linear peptides of protein M of SARS-CoV Urbani [1] | Binding of Control Serum Blood-Bank to Looped peptides of the protein M of SARS-CoV Urbani [2] | Binding of Control serum Blood-bank to linear peptides of the protein M of SARS-CoV Urbani [2] | Binding of Control serum LUMC to linear peptides of the protein M of SARS-CoV Urbani [2] | Binding of Control serum LUMC to looped peptides of the protein M of SARS-CoV Urbani [2]
0.1: Binding of serum SARS-yellow to linear peptides of protein M of SARS-CoV Urbani [1]
0.8: Binding of serum 1a to looped/cyclic peptides of protein M of SARS-CoV Urbani [1] | Binding of serum SARS-yellow to looped/cyclic peptides of protein M of SARS-CoV Urbani [1]
0.6: Binding of serum 1a to linear peptides of protein M of SARS-CoV Urbani [1] | Binding of serum 1b to looped/cyclic peptides of protein M of SARS-CoV Urbani [1] | Binding of serum 2 to looped/cyclic peptides of protein M of SARS-CoV Urbani [1] | Binding of serum 6 to looped/cyclic peptides of protein M of SARS-CoV Urbani [1] | Binding of serum 62 to looped/cyclic peptides of protein M of SARS-CoV Urbani [1]
0.2: Binding of serum London to looped/cyclic peptides of protein M of SARS-CoV Urbani [1] | Rabbit serum linear peptides [3]
0.3: Binding of serum London to linear peptides of protein M of SARS-CoV Urbani [1] | Binding of serum SARS-green to linear peptides of protein M of SARS-CoV Urbani [1] | Rabbit serum looped peptides [3]
